Data reported in patent publication US20260070922A1, “PYRAZOLE AND IMIDAZOLE DERIVATIVES AS DUAL OREXIN AND KAPPA-OPIOID RECEPTORS MODULATORS COMPOSITION, METHODS FOR TREATING NEUROLOGICAL AND PSYCHIATRIC DISORDERS” (HAGER BIOSCIENCES, LLC, priority 2022, published 2026).

Legend:
[1] = target: T1, Orexin type 1 (OX1R) receptor (Homo sapiens, UniProt O43613); experiment: In vitro orexin antagonism assay: intracellular calcium measurement (FLIPR), orexin-A 3 nM as agonist; assay type: cell-based; details: for inhibition at 1 µM: read-out: OX1R, % Inh. @ 1 uM; for IC50: first value of IC50/Kb cell; for Kb: second value of IC50/Kb cell
T1 construct: expressed in transfected cells; host or cells: CHO cells (G418 selection)
T1 sequence (O43613 1-425): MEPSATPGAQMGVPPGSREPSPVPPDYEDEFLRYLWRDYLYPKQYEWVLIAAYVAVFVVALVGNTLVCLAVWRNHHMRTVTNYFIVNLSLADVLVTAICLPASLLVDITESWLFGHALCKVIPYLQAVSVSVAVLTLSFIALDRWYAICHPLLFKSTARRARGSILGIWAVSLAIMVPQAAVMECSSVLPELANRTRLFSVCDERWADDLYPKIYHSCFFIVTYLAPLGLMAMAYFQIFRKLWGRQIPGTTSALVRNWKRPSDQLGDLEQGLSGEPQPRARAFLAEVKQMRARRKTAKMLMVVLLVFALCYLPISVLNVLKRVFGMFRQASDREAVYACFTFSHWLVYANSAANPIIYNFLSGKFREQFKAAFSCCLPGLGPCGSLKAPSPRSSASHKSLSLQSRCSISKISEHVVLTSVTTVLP
Summary of the method: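 CHO cells expressing the human orexin receptor were loaded with 3 μM fluo-4 AM plus 5 mM probenecid, then exposed to antagonist for 120 min before 3 nM orexin-A (final) was added on a FLIPR.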

[2] = target: T2, human orexin-2 receptor (OX2R) (Homo sapiens, UniProt O43614); experiment: as above; assay type: cell-based; details: for inhibition at 1 µM: read-out: OX2R, % Inh. @ 1 uM
T2 construct: expressed in transfected cells; host or cells: CHO cells (G418 selection)
T2 sequence (O43614 1-444): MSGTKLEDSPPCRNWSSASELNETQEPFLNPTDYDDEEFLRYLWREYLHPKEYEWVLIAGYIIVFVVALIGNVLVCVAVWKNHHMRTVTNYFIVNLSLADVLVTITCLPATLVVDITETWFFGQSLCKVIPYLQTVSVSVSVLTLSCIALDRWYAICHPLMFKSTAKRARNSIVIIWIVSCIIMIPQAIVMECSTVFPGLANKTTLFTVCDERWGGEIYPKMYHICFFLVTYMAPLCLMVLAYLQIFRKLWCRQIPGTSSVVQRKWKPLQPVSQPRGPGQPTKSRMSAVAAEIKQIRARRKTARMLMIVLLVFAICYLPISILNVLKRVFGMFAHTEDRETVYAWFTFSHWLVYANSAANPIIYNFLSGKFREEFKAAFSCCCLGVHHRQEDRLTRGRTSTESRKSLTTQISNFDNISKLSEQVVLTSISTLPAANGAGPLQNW
Summary of the method: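 CHO cells stably expressing human OX1R or OX2R, loaded with fluo-4 AM (3 μM, 5 mM probenecid) for 50 min at 37 °C, then 30 min at RT. Antagonist preincubated 120 min before 3 nM orexin-A; FLIPR fluorescence peak height vs vehicle gives IC50, possibly normalized to on-plate reference; geometric mean of repeats.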

[3] = target: T3, human k-opioid receptor (kOR) (Homo sapiens, UniProt P41145); experiment: Human k-opioid (KOP) receptor (agonist radioligand [3H]U-69593) binding assay, transfected RBL cell membranes; details: for IC50: first value of IC50/Ki cell; for inhibition at 1 µM: read-out: KOR % Inh. @ 1 uM
T3 construct: expressed in transfected cells; host or cells: RBL cells (membrane homogenates)
Summary of the method: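 Membranes from transfected RBL cells (~80 μg protein) incubated 60 min at 22° C with 0.5 nM [3H]U-69593 in 50 mM Tris-HCl pH 7.4, 10 mM MgCl2, 1 mM EDTA. Nonspecific binding defined with 10 μM naloxone; filtration and scintillation counting. Values are percent inhibition of specific radioligand binding.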

[4] = target: T3, human k-opioid receptor (kOR); experiment: as above; details: second value of IC50/Ki cell

T3 sequence (P41145 whole entry): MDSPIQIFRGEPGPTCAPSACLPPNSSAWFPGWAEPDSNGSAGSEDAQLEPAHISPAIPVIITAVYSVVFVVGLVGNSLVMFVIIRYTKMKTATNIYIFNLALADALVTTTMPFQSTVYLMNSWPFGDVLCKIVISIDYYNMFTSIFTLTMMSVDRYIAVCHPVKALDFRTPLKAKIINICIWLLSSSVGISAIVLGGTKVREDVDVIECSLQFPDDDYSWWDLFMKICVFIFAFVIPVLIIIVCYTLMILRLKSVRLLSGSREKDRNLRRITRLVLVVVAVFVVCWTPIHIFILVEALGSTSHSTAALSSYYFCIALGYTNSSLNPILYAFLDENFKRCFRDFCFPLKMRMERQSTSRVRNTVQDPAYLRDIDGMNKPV

Row | inhibition at 1 µM [1] | inhibition at 1 µM [2] | IC50 [3] | inhibition at 1 µM [3] | Ki [4] | IC50 [1] | Kb [1] | IC50 ([2]; first value of IC50/Kb cell) | Kb ([2]; second value of IC50/Kb cell) | Compound
1 | 100% | 21.4% | 1980 nM | 38% | 1080 nM |  |  |  |  | C[C@@H]1CCCN(C(=O)c2c(-c3ccccc3)nc3ccccn23)[C@@H]1CNc1ccc(C(F)(F)F)cn1 [Example 8]
2 | 70% | 37% | 80 nM | 91% | 44 nM | 160 nM | 33 nM |  |  | O=C(c1c(-c2ccccc2)nc2ccc(F)cn12)N1[C@H](Cn2ccc(-c3ccc(F)cc3)n2)C[C@@H]2C[C@@H]21 [Example 97]
3 | 87% | 78% | 46 nM | 95% | 25 nM | 190 nM | 40 nM | 79 nM | 14 nM | O=C(c1c(-c2ccccc2)nc2cc(C(F)(F)F)ccn12)N1CCC[C@H]1Cn1cc(-c2ccccc2)cn1 [Example 80]
